Read-outs that look alike come from different tables or passages of the source.
Experiments:
[1] = test system: motility depression (depression of consciousness level) associated with cerebral ischemia; assay: Recovery of motility after experimental cerebral ischemia; type: in vivo, Wistar rats; settings: for Time to reappearance of spontaneous motility: control 81.5 ± 13.3
Description: Experimental cerebral ischemia was produced in accordance with the method of Pulsinelli et al. (Stroke 10, 267-272, 1979), using Wistar rats 8-week old. On the first day of the experiment, the rats were anesthetized with pentobarbital, and their occipital skin and muscle were incised along the median line, then their vertebral arteries were cauterized bilaterally, and their ventral necks were incised, the bilateral common carotid arteries were separated from the surrounding tissue, to which a thread was applied. On the next day, the common carotid arteries were drawn out by the use of this thread under anaesthetic conditions, and occluded with clips for 30 minutes. By this treatment, serious cerebral ischemia was induced. After 30 minutes' occlusion, the clip was removed to allow the cerebral circulation to resume. Time to recovery of righting reflex and time to reappearance of spontaneous motor activity were measured on individual test animals. The test compound was orally administered to the animals as a 5% suspension in gum arabic one hour before causing the cerebral ischemia and immediately after the resumption of cerebral circulation. The control group was orally administered with only a 5% gum arabic suspension.

[2] = test system: impaired learning after cerebral ischemia; assay: Passive avoidance learning impaired after cerebral ischemia; type: in vivo, Wistar rats
Protocol: As in the case of the above test (3-1), Wistar rats were used to produce an experimental model for cerebral ischemia. In this experiment, the time during which cerebral ischemia was caused in the animals was 5 minutes. By this treatment, a passive avoidance learning impairments was induced. The passive avoidance learning was tested in accordance with the method in Experiment 1. The test compound was suspended in a 5% gum arabic vehicle. Test animals were administered with this suspension three times, i.e. one hour prior to causing cerebral ischemia, two hours prior to a passive avoidance learning and two hours prior to the test. The control group was administered with only a 5% gum arabic suspension.

[3] = test system: Retention deficit induced by scopolamine; assay: Passive avoidance task, retention deficit induced by scopolamine; type: in vivo, mice; settings: scopolamine 1 mg/kg i.p.; for recovery of memory: orally administered 5% gum arabic suspension, in words; for Avoidance Time (%): p.o., 3 mg/kg, percent change rate relative to control (100), P < 0.05
Description: Actions of the compound (8) obtained in Working Example 8 and the compound (9) obtained in Working Example 9 on amelioration of memory impairment was studied using the passive avoidance task shown below. Five-week old male mice were placed first in the light chamber of a passive avoidance learning apparatus consisting of light and dark chambers. The mice immediately moved into the dark chamber, then an unescapable electric shock (0.5 mA, 3 sec.) was applied to the animals. These animals retained for several weeks the memory that they received the electric shock. This memory retention was disrupted by the following procedure, and the effect of the compounds (8) and (9) was tested. Thirty minutes prior to the application of electric shock, these animals were each administered with scopolamine (1 mg/kg, i.p), then these mice lost the memory of this experience of an electric shock.
On the following day, a retention recovery test was conducted. These mice were again placed in the light chamber of the passive avoidance apparatus and the time until the animals moved into the dark chamber (avoidance time) was measured. These mice which lost the memory of the experience of an electric shock moved again into the dark chamber in 10 to 20 seconds. […] The effects of these test compounds were examined by comparing the average value (11-15 animals/group) of the period of time during which the mice stayed in the light chamber with that of the control group (administered only a suspension of 5% gum arabic containing no test compound). The results were expressed by the percent change rate relative to the mean value (100) in the control group (Table 5).

A1 receptor = molecular target: T1, A1 receptor (Rattus norvegicus, UniProt P25099); assay: A1 receptor antagonism (inhibition of 3H-cyclohexyladenosine binding, rat cerebral cortex membranes)
T1 construct: a rat was decapitated, and the cerebral cortex (A1 receptor); from tissue; host or cells: rat cerebral cortex membranes
T1 sequence (P25099 1-326): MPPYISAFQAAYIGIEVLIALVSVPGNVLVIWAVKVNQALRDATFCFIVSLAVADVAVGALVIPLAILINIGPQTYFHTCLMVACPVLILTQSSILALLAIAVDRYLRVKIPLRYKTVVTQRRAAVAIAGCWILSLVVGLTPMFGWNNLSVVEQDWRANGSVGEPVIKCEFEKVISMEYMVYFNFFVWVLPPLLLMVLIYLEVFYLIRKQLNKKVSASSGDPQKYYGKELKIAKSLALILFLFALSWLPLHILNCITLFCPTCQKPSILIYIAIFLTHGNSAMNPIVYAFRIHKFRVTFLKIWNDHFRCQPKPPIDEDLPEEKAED
Protocol: (§1) Preparation of membranes was performed in accordance with the method of Burns et al. described in Proc. Natl. Acad. Sci., 77, 5547 (1980). More specifically, a rat was decapitated, and the cerebral cortex (A1 receptor) or corpus striatun (A2 receptor) was suspended using Polyton in a Tris-HCl buffer solution of pH 7.7 (50 mM, 20 ml). This suspension was centrifuged at 48,000 g for 10 minutes, and the pellet was resuspended and centrifuged in a similar manner. The pellet was resuspended in a Tris-HCl buffer solution (50 mM), to which was added adenosine deaminase (2U/ml). The mixture was incubated at 37° C. for 30 minutes. This suspension was centrifuged and the pellet was stored at -20° C.
(§2) Using the above-mentioned pellet, adenosine antagonism (A1 and A2) was examined.
The above-mentioned pellet was thawed at room temperature and suspended in a Tris-HCl buffer solution. To the suspension (0.9 ml) were added ^3 H-cyclohexyladenosine (^3 H-CHA)(ca. 0.05 μCi, 0.1 ml) and the test drug (10 μl), and the mixture was incubated at 25° C. for 60 minutes. The reaction mixture was subjected to filtration with GF/B filter. The filter was washed four times with a Tris-HCl buffer solution. The radioactivity on the filter was measured by liquid scintillation. The nonspecific binding amount was measured in the presence of 10^-5 M of L-phenyl isopropyladenosine.

A2 receptor = molecular target: T2, A2 receptor (Rattus norvegicus, UniProt P30543); assay: A2 receptor antagonism (inhibition of 3H-NECA binding, rat corpus striatum membranes); settings: in presence of 50 nM cyclopentyladenosine, read-out: A2 receptor (Ki, μM), binding-inhibition constant
T2 construct: corpus striatun (A2 receptor); from tissue; host or cells: rat corpus striatum membranes
T2 sequence (P30543 whole entry): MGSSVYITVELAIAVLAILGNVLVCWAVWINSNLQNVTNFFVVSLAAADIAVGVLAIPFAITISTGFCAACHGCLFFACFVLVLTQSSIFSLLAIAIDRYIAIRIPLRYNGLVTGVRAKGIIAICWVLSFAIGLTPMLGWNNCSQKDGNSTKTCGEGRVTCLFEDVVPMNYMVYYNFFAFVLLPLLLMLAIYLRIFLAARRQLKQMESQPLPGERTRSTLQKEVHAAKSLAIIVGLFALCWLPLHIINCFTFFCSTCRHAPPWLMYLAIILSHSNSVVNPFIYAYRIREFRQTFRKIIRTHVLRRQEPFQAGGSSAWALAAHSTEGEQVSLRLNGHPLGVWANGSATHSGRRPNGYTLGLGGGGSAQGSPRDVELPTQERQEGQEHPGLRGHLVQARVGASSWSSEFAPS
Protocol: as §1, §2
The experiment was performed analogously to that for A1 receptor antagonism. Using ^3 H-adenosine-5'-ethylcarboxamide (^3 H-NECA; about 0.1 μCi) as ligand, the experiment was conducted in the presence of 50 nM of cyclopentyladenosine. The nonspecific binding amount was measured in the presence of 10^-4 M of cyclopentyladenosine.

[4] = rat cerebral cortex, 3H-CHA, 25° C., 60 minutes, read-out: A1 receptor (Ki, μM), binding-inhibition constant

CCCn1c(=O)c2c(nn3cc[nH]c23)n(Cc2ccccc2)c1=O [Working Example 8, 1-Benzyl-3-propyl-1,2,3,4-tetrahydro-5H-imidazo[2',1':5,1]pyrazolo[3,4-d]pyrimidine-2,4-dione] was tested, and the “Time to recovery of righting reflex” value ([1]; 3 mg/kg oral, 30 minutes occlusion, average ± standard error, control 29.8 ± 5.9) was 21.0 ± 3.2 min, the “Time to reappearance of spontaneous motility” value ([1]; 3 mg/kg oral, 30 minutes occlusion, average ± standard error) was 55.2 ± 6.5 min and the “Time to recovery of righting reflex” value ([1]; 10 mg/kg oral, 30 minutes occlusion, average ± standard error, control 29.8 ± 5.9) was 16.7 ± 2.6 min. The “Time to reappearance of spontaneous motility” value ([1]; 10 mg/kg oral, 30 minutes occlusion, average ± standard error, P < 0.05) was 43.8 ± 4.7 min, the “Time to recovery of righting reflex” value ([1]; in words) was “tended to shorten the time to recovery of righting reflex dosedependently” and the “time to reappearance of spontaneous motor activity” value ([1]; in words) was “shortened the time to reappearance of spontaneous motor activity”. For the same molecule, the Avoidance time ([2]; 3 mg/kg and 10 mg/kg, in words) was “prolonged the avoidance time, in the doses of 3 mg/kg and 10 mg/kg, dose-dependently”, the Avoidance time ([2]; 3 mg/kg, 5 minutes ischemia, median, control 17.5) was 152.8 s and the Avoidance time ([2]; 10 mg/kg, 5 minutes ischemia, median, control 17.5, P < 0.05) was 285.9 s. For the same molecule, the recovery of memory [3] was “recovered the memory”.
CCCn1c(=O)c2c(nn3cc[nH]c23)n(Cc2ccc(Cl)cc2)c1=O [Working Example 9] was tested, and the recovery of memory [3] was “recovered the memory”.
Work on CCCn1c(=O)c2c3n(nc2n(Cc2ccccc2)c1=O)CCN3 [compound 1] yielded a Ki (A1 receptor; [4]) of 0.12 µM and a Ki (A2 receptor) of 3.3 µM.
With CCCn1c(=O)c2c3n(nc2n(Cc2ccc(Cl)cc2)c1=O)CCN3 [compound 2] the Ki (A1 receptor; [4]) was 0.14 µM and the Ki (A2 receptor) was 2.9 µM.
CCCn1c(=O)c2c3n(nc2n(Cc2cccc(Cl)c2)c1=O)CCN3 [compound 3] was tested, and the Ki (A1 receptor; [4]) was 0.19 µM and the Ki (A2 receptor) was 4.2 µM.
Molecule CCCn1c(=O)c2c3n(nc2n(Cc2ccccc2Cl)c1=O)CCN3 [compound 4] has a Ki (A1 receptor; [4]) of 0.27 µM and a Ki (A2 receptor) of 6.5 µM.
CCCCn1c(=O)n(Cc2ccccc2)c(=O)c2c3n(nc21)CCN3 [compound 5] gave a Ki (A1 receptor; [4]) of 0.67 µM and a Ki (A2 receptor) of 4.5 µM.
For CCCn1c(=O)c2c(nn3cc[nH]c23)n(Cc2ccccc2)c1=O [compound 8], the Ki (A1 receptor; [4]) was 0.034 µM, the “Avoidance Time (%)” value [3] was 243% and the Ki (A2 receptor) was 0.26 µM.
With CCCn1c(=O)c2c(nn3cc[nH]c23)n(Cc2ccc(Cl)cc2)c1=O [compound 9] the Ki (A1 receptor; [4]) was 0.05 µM, the “Avoidance Time (%)” value [3] was 262% and the Ki (A2 receptor) was 0.37 µM.
CCCn1c(=O)c2c(nn3cc[nH]c23)n(Cc2cccc(Cl)c2)c1=O [compound 10] was tested, and the Ki (A1 receptor; [4]) was 0.098 µM and the Ki (A2 receptor) was 0.46 µM.
CCCn1c(=O)c2c(nn3cc[nH]c23)n(Cc2ccccc2Cl)c1=O [compound 11] gave a Ki (A1 receptor; [4]) of 0.092 µM and a Ki (A2 receptor) of 1 µM.
In the case of CCCCn1c(=O)n(Cc2ccccc2)c(=O)c2c1nn1cc[nH]c21 [compound 12], the Ki (A1 receptor; [4]) is reported as 0.2 µM and the Ki (A2 receptor) is reported as 1.1 µM.
CCCn1c(=O)c2c(nn3cc[nH]c23)n(CCc2ccccc2)c1=O [compound 13] gave a Ki (A1 receptor; [4]) of 0.53 µM and a Ki (A2 receptor) of 16 µM.
CCCn1c(=O)c2c(nn3cc[nH]c23)n(CCCc2ccccc2)c1=O [compound 14] was tested, and the Ki (A1 receptor; [4]) was 0.11 µM and the Ki (A2 receptor) was 2.5 µM.
With CCCn1c(=O)c2c(nn3cc(-c4ccccc4)[nH]c23)n(Cc2ccccc2)c1=O [compound 15] the Ki (A1 receptor; [4]) was 0.01 µM and the Ki (A2 receptor) was 0.28 µM.
In the case of CCCn1c(=O)c2c(nn3c(C)c(C)[nH]c23)n(Cc2ccccc2)c1=O [compound 16], the Ki (A1 receptor; [4]) is reported as 0.024 µM and the Ki (A2 receptor) is reported as 0.43 µM.
CCCCc1cn2nc3c(c(=O)n(CCC)c(=O)n3Cc3ccccc3)c2[nH]1 [compound 17] gave a Ki (A1 receptor; [4]) of 0.0051 µM and a Ki (A2 receptor) of 0.35 µM.
In the case of CCCn1c(=O)c2c(nn3c4c([nH]c23)CCCC4)n(Cc2ccccc2)c1=O [compound 19], the Ki (A1 receptor; [4]) is reported as 0.027 µM and the Ki (A2 receptor) is reported as 0.19 µM.
CCCn1c(=O)c2c(nn3cc(-c4cccc(OC)c4)[nH]c23)n(Cc2ccccc2)c1=O [compound 21] showed a Ki (A1 receptor; [4]) of 0.0069 µM and a Ki (A2 receptor) of 0.12 µM.
For CCCn1c(=O)c2c(nn3cc(-c4ccc(OC)cc4)[nH]c23)n(Cc2ccccc2)c1=O [compound 22], the Ki (A1 receptor; [4]) was 0.0047 µM and the Ki (A2 receptor) was 0.21 µM.
In the case of CCCn1c(=O)c2c(nn3cc(-c4ccccc4OC)[nH]c23)n(Cc2ccccc2)c1=O [compound 23], the Ki (A1 receptor; [4]) is reported as 0.53 µM and the Ki (A2 receptor) is reported as 0.5 µM.
For CCCCOc1ccc(-c2cn3nc4c(c(=O)n(CCC)c(=O)n4Cc4ccccc4)c3[nH]2)cc1 [compound 24], the Ki (A1 receptor; [4]) was 0.053 µM and the Ki (A2 receptor) was > 0.5 µM.
For CCCn1c(=O)c2c(nn3cc(-c4ccc(C)cc4)[nH]c23)n(Cc2ccccc2)c1=O [compound 25], the Ki (A1 receptor; [4]) was 0.58 µM and the Ki (A2 receptor) was > 0.5 µM.
In the case of CCCn1c(=O)c2c(nn3cc(-c4cccc(Cl)c4)[nH]c23)n(Cc2ccccc2)c1=O [compound 26], the Ki (A1 receptor; [4]) is reported as 0.037 µM and the Ki (A2 receptor) is reported as > 0.5 µM.
CCCn1c(=O)c2c(nn3cc(-c4ccccc4Cl)[nH]c23)n(Cc2ccccc2)c1=O [compound 27] was tested, and the Ki (A1 receptor; [4]) was 0.58 µM and the Ki (A2 receptor) was > 0.5 µM.
CCCCn1c(=O)[nH]c(=O)c2c3n(nc21)CCN3 [compound 29] gave a Ki (A1 receptor; [4]) of 18 µM and a Ki (A2 receptor) of 39 µM.
CCCn1c(=O)[nH]c2nn3cc[nH]c3c2c1=O [compound 30] was tested, and the Ki (A1 receptor) was 0.42 µM and the Ki (A2 receptor) was 0.42 µM.

— patent US5032594A, “Tricyclic fused pyrimidine derivatives, their production and use” (Takeda Chemical Industries, Ltd., priority 1989, dated 1991)
